Measurements taken from article PMC6076261, “A new quinoline-based chemical probe inhibits the autophagy-related cysteine protease ATG4B” (Scientific Reports, 2018).
Like-named read-outs stand apart in the source and are kept apart here.

Columns and labels:
JIMT-1 cells = experiment: LC3B-II versus pro-LC3B western blot in JIMT-1 cells; details: 75 µM; 24 h
Description: To further confirm that the increase in LC3B-II represented a block in autophagy flux, the levels of endogenous LC3B-II were quantitated in the presence and absence of bafilomycin A1 (Baf A1).
Membranes were blocked in 2% milk and incubated in primary antibodies overnight at 4 °C. Primary antibodies were diluted in 2% milk and included: p62 (1:1000; Sigma, ref: P0067), LC3B (1:1000; Abcam, ref: ab48394), GABARAP (1:1000; Abcam, ref: ab109364), beta-actin (1:10000; Abcam, ref: ab6276), and vinculin (1:1000; Abcam, ref: ab129002). Membranes were then washed with 1X PBS-T (0.1%), incubated in HRP-conjugated secondary antibodies and detected using Bio-Rad Clarity Western ECL substrate and the electronic Bio-Rad ChemiDoc MP System. Densitometry was performed using Image Lab software (Bio-Rad), and the relative levels of LC3B-II were determined by first normalizing to the actin loading controls then to the DMSO controls.

[1] = tested on: SKBR3, MCF7, JIMT1 and MDA-MB-231 cells; experiment: Endogenous LC3B-II and p62 western blot in breast cancer cell lines; assay type: cell-based
GFP-LC3 mice = experiment: In vivo autophagy assay in GFP-LC3 mice; details: 3 doses
Description: (§1) GFP–LC3 mice were kindly provided by Dr. Mizushima (Tokyo Medical and Dental University, Japan)[67]. […]. The treatment was given by oral gavage. Four hours after the last dose the mice were terminated, blood samples were collected and the livers were harvested for the analysis.
(§2) After treatment, mouse liver tissues were collected and fixed with 4% paraformaldehyde dissolved in 0.1 M Na-phosphate buffer (pH 7.4) for 4 h, incubated overnight with 15% sucrose/PBS, and 30% sucrose/PBS for 4 h. Tissues were then embedded in OCT compound (Tissue-Tek) and stored at −80 °C. Liver OCT blocks were sectioned into 6 μm slides and countered stained with DAPI-containing mounting medium. Five randomly selected fields from each sample were examined (scorer was blinded) under 40x oil lens of the confocal microscope. Z-stack images were taken from each field with fixed settings at the laser power and exposure time for all samples. Green for GFP-LC3 and blue for nucleus (DAPI). The percentage of GFP-LC3 puncta positive cells from 5 fields were calculated for each sample; and 6 samples from each treatment condition were grouped for statistical analysis. Six animals per treatment group were used based on results in previous studies validating this method as a way to quantify GFP-LC3 puncta.

[2] = In vivo autophagy assay in GFP-LC3 mice; details: female, GFP-LC3, mouse, 4 h after last dose, 100 or 200 mg/kg oral, 3 doses over two days
Description: as §1, §2

MDA-MB-231 cells [3] = experiment: Autophagic flux and GABARAP western blot in MDA-MB-231 cells; assay type: cell-based
Description: Corresponding mean LC3B-II/actin values were determined using densitometry analysis; error bars, SEM (n = 3). […] Autophagic flux assay using saturating (40 nM) concentrations of bafilomycin A1 (Baf A1) was applied for the assessment of LC3B-II accumulation. […] Corresponding mean LC3B-II/actin values were determined using densitometry analysis; n = 3; error bars, SEM; *p < 0.05. […] The control ATG4B-KO JIMT-1 cells showing the location of pro-LC3B are in lane 3. Samples were run on a 4–12% Bis-tris gradient gel. The banding pattern shown is representative of 3 independent experiments. […] Addition of bafilomycin A1 (Baf A1; 40 nM) or Wortmannin (1 µM) during the final 4 h of treatment had no effect. The GABARAP-II/actin values were determined using densitometry analysis; n = 3; error bars, SEM; *p < 0.05, Student’s t-test.

caspase-3 = molecular target: T1, caspase-3 (Homo sapiens, UniProt P42574); experiment: Caspase 3 assay (Abcam inhibitor kit); assay type: biochemical
T1 construct: purchased Abcam ab102491
T1 sequence (P42574 29-175 limits assumed): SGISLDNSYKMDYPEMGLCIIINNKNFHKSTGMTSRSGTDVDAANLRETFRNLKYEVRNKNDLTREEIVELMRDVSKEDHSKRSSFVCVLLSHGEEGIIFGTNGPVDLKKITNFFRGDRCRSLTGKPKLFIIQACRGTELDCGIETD
T1 sequence (P42574 176-277 limits assumed): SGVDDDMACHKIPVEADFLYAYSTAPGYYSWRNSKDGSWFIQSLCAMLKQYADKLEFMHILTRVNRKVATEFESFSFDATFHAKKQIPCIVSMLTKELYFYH
Description: Inhibition of caspase 3 was assayed using the Abcam Caspase 3 Inhibitor Drug Detection Kit (ab102491) according to the manufacturer’s protocol.

[4] = Pharmacokinetic assay, oral dosing; assay type: in vivo, BL/6 mice
Description: Blood samples (approximately 50 µL) were collected at predetermined intervals. Blood samples were placed into tubes containing sodium heparin and centrifuged at 10000 × g for 14 min to obtain the plasma samples.

[5] = tested on: MDA-MB-231 cells stably expressing mRFP-EGFP-LC3B; experiment: mRFP-EGFP-LC3B puncta assay of starvation-induced autophagic flux; assay type: cell-based; details: 120 µM for 48 hours; starved conditions
Excerpt: Since GFP fluorescence is quenched in acid environments, but red fluorescence is preferentially retained, autolysosomes are indicated by red puncta whereas autophagosomes are indicated by yellow puncta, or the overlap of both red and green fluorescence. In starved control scramble-siRNA treated cells, abundant red puncta were detected as expected, indicating high levels of autophagic flux (Fig. 6a). […] To determine if LV-320 affects lysosomal degradation, we performed a DQ-BSA assay. DQ-Red BSA is a self-quenched fluorescent substrate that enters the cell through endocytosis and fluoresces upon lysosomal degradation.
For each experiment, media was replenished every day after initial plating and before treatment. At the end of the experiment the cells were fixed in 4% PFA for 20 minutes and then rinsed with PBS. Cells were then mounted using SlowFade Gold Antifade with DAPI (Invitrogen). […] For each treatment, the number of green, red and yellow (i.e. red/green overlap where applicable) puncta per cell were determined for at least 100 cells. […] LTR fluorescent intensity was measured by the mean gray value from the unadjusted images taken with the same microscope settings of the LTR channel and subtracting the mean background using Image J 1.45 s (https://imagej.nih.gov/ij/) with cells counted by DRAQ5 positive nuclei.

Cathepsin B = molecular target: T2, Cathepsin B (Homo sapiens, UniProt P07858); experiment: Cathepsin B assay; assay type: biochemical; details: concentrations up to 60 µM
T2 construct: Cathepsin B (human, recombinant, active - BioVision #7580-5); purchased BioVision #7580-5
Description: The assay was performed essentially as described by Mendieta et al.[60] with Cathepsin B (human, recombinant, active - BioVision #7580-5), Substrate Z-Arg-Arg-AMC (Sigma C5429) and 1 µM Z-VAD-FMK (Adooq #A12373) as positive inhibition control.
The assay was maintained at 37 °C and monitored every 2 min for 16 min at 348 nm/440 nm (excitation/emission).

SKBR3 cells = experiment: DQ-BSA assay for lysosomal activity; assay type: cell-based; details: CQ 20 µM; LV-320 75 and 100 µM
Description: A DQ-BSA assay was used to determine lysosomal degradative activity as described. […] All samples contained equal concentration of DMSO (0.5%) in regular growth media (Gibco DMEM + 10% FBS + 20 mM HEPES + 1X NEAA). […] Data were analyzed using FlowJo software.

osteosarcoma xenograft = tested on: osteosarcoma xenograft; design: method as in PMID 25483883; details: dosed daily at 100 mg/kg; cited from earlier work
LC3 = tested on: LC3; design: method as in PMID 25483883; details: cited from earlier work
ATG4B = molecular target: T3, ATG4B (Homo sapiens, UniProt Q9Y4P1); experiment: Fluorimetric ATG4B enzymatic assay with fluorescent peptide substrate pim-FG-PABA-AMC; assay type: biochemical; details: up to 175 µM
T3 sequence (Q9Y4P1 1-393): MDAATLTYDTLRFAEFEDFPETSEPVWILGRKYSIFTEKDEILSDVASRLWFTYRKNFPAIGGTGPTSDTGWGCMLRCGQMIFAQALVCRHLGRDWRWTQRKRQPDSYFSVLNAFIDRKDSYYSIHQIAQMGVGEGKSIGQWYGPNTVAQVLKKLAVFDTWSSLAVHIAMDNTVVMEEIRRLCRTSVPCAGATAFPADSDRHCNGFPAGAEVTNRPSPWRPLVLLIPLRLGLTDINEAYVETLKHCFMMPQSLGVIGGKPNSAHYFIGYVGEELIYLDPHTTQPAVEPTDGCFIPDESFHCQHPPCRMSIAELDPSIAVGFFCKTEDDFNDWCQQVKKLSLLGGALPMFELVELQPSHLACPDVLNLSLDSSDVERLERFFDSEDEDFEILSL
Description: 100 μL of immobilized TCEP in deionized water was diluted in 2.50 mL of buffer (50 mM Tris, 35 mM NaCl, pH = 8). The sample was centrifuged at 10,000 × g during 1 min. The supernatant was removed. This operation was done two more times. […] The solution was incubated on a carousel at 4 °C for 1 h. This solution was then diluted with 2.06 mL of buffer (50 mM Tris, 35 mM NaCl, 5 mM EDTA, pH 8), centrifuged at 10,000 × g during 1 min and the supernatant, containing the activated ATG4B (1 µM), was kept. A 96-well all-black plate was loaded where each well was charged with 55 µL of inhibitor at different concentrations (0 µM to 100 µM or 200 µM) in buffer/DMSO 41:3 (v/v) and 20 μL of enzyme or buffer were dispensed using a dispenser (Biotek). Plate was incubated for 30 min. A single read was done using excitation and emission wavelengths of 350/450 nm. 25 µL of peptide substrate (pim-FG-PABA-AMC)[52] (final assay concentration 100 µM) was dispensed using a dispenser (Biotek). Experiments were performed in triplicate except when it is mentioned. Fluorescent reads were performed using the Synergy 4 (Biotek) at 25 °C using excitation and emission wavelengths of 350/450 nm every 15 min for 2 h.

MDA-MB-231 cells [6] = experiment: Lysotracker Red fluorescence assay; assay type: cell-based; details: CQ 40 µM, LV-320 120 µM; 24 hours
Description: For each experiment, media was replenished every day after initial plating and before treatment. At the end of the experiment the cells were fixed in 4% PFA for 20 minutes and then rinsed with PBS. Cells were then mounted using SlowFade Gold Antifade with DAPI (Invitrogen). For Lysotracker Red®(LTR) experiments, parental MDA-MB-231 cells were incubated with 50 µM of LTR for 5 min in the dark CO2 incubator, rinsed with PBS and fixed with 4% PFA for 20 min. Fixed cells were incubated in DRAQ5 (1:500) in PBS and 100 µg/mL RNaseA for 10 minutes at room temperature before being mounted with SlowFade Gold Antifade (Invitrogen). Leica TCS SP8 inverted confocal microscope with a Leica HC PL APO 63x/1.40 oil objective and LAS AF software (Leica) were used for imaging the cells. For each treatment, the number of green, red and yellow (i.e. red/green overlap where applicable) puncta per cell were determined for at least 100 cells. Puncta counting was performed using the OpenCV Python package; a contours discovery algorithm[66] was applied to images pre-processed by filtering colors and applying a Gaussian filter and adaptive threshold.

O=C(O)CCSC(SCCc1ccccc1)c1ccc(/C=C/c2ccnc3cc(Cl)ccc23)cc1 (stereo not drawn) [LV-320]
LC3B-II versus pro-LC3B accumulation (JIMT-1 cells): accumulation of LC3B-II but not pro-LC3B
p62 level [1]: dose-dependent increase
concentration at which LC3B-II changes first detected ([1]; all four cell lines): 50 to 75 µM
endogenous LC3B-II levels ([1]; all four cell lines): dose-dependent increase
toxicity of treatment regimens (GFP-LC3 mice; 100 and 200 mg/kg oral): did not cause significant toxicity
GFP-LC3 puncta in liver versus controls (GFP-LC3 mice; 100 or 200 mg/kg oral): significantly greater accumulation
LC3B-II protein in liver versus vehicle controls (GFP-LC3 mice; 100 or 200 mg/kg oral): increased
concentration at 4 h ([2]; blood, read-out: terminal blood levels): 169 ± 23 µM
concentration at 4 h ([2]; liver, read-out: liver levels): 104 ± 26 µM
GABARAP levels (MDA-MB-231 cells [3]; 120 µM for 24 h): significant decrease
autophagic flux (LC3B-II with and without Baf A1) (MDA-MB-231 cells [3]; 120 µM for 48 hours, Baf A1 40 nM): blocks autophagic flux
inhibition at 60 µM (caspase-3): 6%
maximum concentration in plasma ([4]; 100 mg/kg oral): 210 ± 50 µM
maximum concentration in plasma ([4]; 200 mg/kg oral): 280 ± 20 µM
Tmax ([4]; female, BL/6, mouse, plasma, 100 and 200 mg/kg oral, read-out: time of maximum concentration): 1 h
dose proportionality of blood levels ([4]; oral 30, 100 and 200 mg/kg): dose proportional up to 100 mg/kg but somewhat less so at 200 mg/kg
formation of red puncta (autolysosomes) [5]: significantly blocked
inhibition of cathepsin B (Cathepsin B): 32%
DQ-Red BSA fluorescence (lysosomal degradation) (SKBR3 cells): no significant effect

S=C(Nc1ccccn1)c1ccccn1 [NSC 185058, N-pyridin-2-ylpyridine-2-carbothioamide]
tumor growth (osteosarcoma xenograft): ability to inhibit tumor growth
activation and lipidation of LC3 in cells (LC3): inhibiting activation and lipidation of LC3 in cells

CCN(CC)CCCC(C)Nc1ccnc2cc(Cl)ccc12 (stereo not drawn) [chloroquine, reference compound]
inhibition of activity of purified ATG4B (ATG4B): did not show significant inhibition
LTR fluorescence intensity relative to vehicle (MDA-MB-231 cells [6]): statistically significant decrease
DQ-Red BSA fluorescence (lysosomal degradation) (SKBR3 cells): significantly reduced
